From patent US20150150892A1, “METHODS AND PRODUCTS RELATED TO LUNG CANCER” (Massachusetts Institute of Technology, priority 2012, published 2015)

Legend:
[1] = human, in vivo; cited from earlier work
[2] = test system: NF-κB target genes in H2122 and H2009 cell lines; assay: QPCR of NF-κB target genes in human NSCLC cell lines; type: cell-based; settings: 10 nM Bortezomib, 24 hours
Procedure: FIG. 8: Bortezomib inhibits NF-κB signaling in human NSCLC cells. H2122 (KRASG12C;TP53c176F/Q16L) (8A) and H2009 (KRASG12A;TP53R273L) (8B) cell lines were treated with vehicle control or 10 nM Bortezomib for 24 hours. NF-κB target gene expression was measured by QPCR. Error bars are s.d. (n=3). N.D. denotes not detectable. Mutation information is from the Sanger COSMIC database.
(§1) RNA was purified using TRIzol (Invitrogen), according to the manufacturer's instructions. One microgram of RNA was reverse transcribed using the High-Capacity cDNA Reverse Transcription Kit (Applied Biosystems). Real-time PCR (quantitative PCR) amplification was performed using Taqman probes (Applied Biosystems). Data were normalized to the Gapdh (mouse) or GAPDH (human) levels.

KP mice = assay: Kaplan-Meier survival of KP mice; type: in vivo, mouse; settings: KP mice, bortezomib 1 mg/kg once a week for 4 weeks from 8 weeks after Adeno-Cre; control 76.8±10.6 days; P=0.001
Procedure: (5A and 5B) Kaplan-Meier survival curve of vehicle control and bortezomib-treated KP (5A) and K (5B) mice. Arrows indicate weekly 1 mg/kg bortezomib regimen. […] Arrows indicate bortezomib injection.
To initiate lung tumors, cohorts of K or KP mice of 129svJae background were infected with 2.5×10^7 plaque-forming units of Adeno-Cre (University of Iowa) by intranasal inhalation, as described previously (2, 28). Mice were given bortezomib (LC Labs) in PBS [0.5% dimethylsulfoxide (DMSO)] at 1 mg/kg body weight i.v., as indicated.
To analyze the long-term effects of bortezomib therapy, we investigated whether a 4-dose regimen of bortezomib (19) could prolong survival of tumor-bearing mice. Using a cohort of KP mice, we treated tumor-bearing animals 8 weeks after Adeno-Cre infection with bortezomib once a week for 4 weeks (FIG. 10A).

NF-κB target genes = assay: Quantitative PCR of NF-κB target genes in KP cells; type: cell-based, mouse
Procedure: FIG. 1. Bortezomib inhibits NF-κB signaling and induces apoptosis in murine lung adenocarcinoma cell lines. (1A) reduction of nuclear p65 level by bortezomib. Two KP (KrasLSL-G12D/wt;p53flox/flox) cell lines (KP1 and KP2) were treated with 5 nM bortezomib (BZ) or vehicle control (ctrl) for 24 hours. Nuclear (N) and cytoplasmic (C) fractions of protein lysates were immunoblotted with the indicated antibodies. NEMO and Parp serve as cytoplasmic and nuclear loading controls, respectively. (1B) quantitative PCR analysis of a subset of NF-κB target genes in 5 nM bortezomib (BZ)-treated KP cells at the indicated time points. Vehicle control is set to 1. (1C) apoptosis in KP and KP^M (KrasLSL-G12D/wt;p53R127H/−) cells induced by bortezomib. Cells were pre-treated with 5 nM bortezomib for 24 hours, and protein lysates were immunoblotted with CC3 and tubulin antibodies. (1D) quantification of cell death in bortezomib-treated cells. Cells were treated with the indicated concentrations of bortezomib for 24 hours, and dead cells were quantified by Trypan blue staining. Error bars are SD (n=3).
FIG. 7: The NF-κB inhibitor Bay-117082 leads to lung tumor regression in vivo. (7A) quantitative PCR analysis of NF-κB target gene expression in KP cells treated with 10 μM Bay-117082 for indicated hours. Error bars are SD (n=3). (7B) Bay-117082 treatment leads to lung tumor regression and delays tumor progression in the orthotopic lung tumor model. A total of 50,000 luciferase-tagged KP cells were transplanted into recipient mice (n=6), and treatment was started at 19 days after transplantation (set at D0). Mice were treated with vehicle control or 10 mg/kg Bay-117082 by i.p. injection, and imaged at the indicated time points. Arrows indicate Bay-117082 injections. (7C) Bay-117082 prolongs survival in the KP model (n=6; P=0.008). “i.p. dosing” indicates treatment with 3 doses per week.
as §1

KP lung tumors = assay: CC3 immunohistochemistry in KP lung tumors; type: in vivo, mouse
Procedure: (§2) FIG. 4: Bortezomib induces apoptosis in KP lung tumors. (4A and 4B) H&E and CC3 immunohistochemistry staining (×200) in vehicle control- and bortezomib-treated KP (4A) and K (4B) lung tumors. (4C and 4D) quantification of CC3-positive cells in bortezomib-treated KP (4C) and K (4D) lung tumors at indicated time points. “0 hour” represents vehicle control-treated tumors. Error bars are SD (n>10 for each time point).
FIG. 5: Bortezomib increases survival in KP mice. (5A and 5B) Kaplan-Meier survival curve of vehicle control and bortezomib-treated KP (5A) and K (5B) mice. Arrows indicate weekly 1 mg/kg bortezomib regimen. (5C) quantification of lung tumor volume of control- and bortezomib-treated KP mice. From 10 weeks after Adeno-Cre infection, lungs were imaged by microCT to measure individual tumor volumes (n=4). Data points represent means of fold change and SD relative to 10 weeks (set to 1). Arrows indicate bortezomib injection. D, CC3 staining (×200) in lung tumors receiving 3 doses of control (“C”) and 1 final dose of bortezomib (“B,” left) or 4 doses of bortezomib (right). Tumors were harvested 48 hours after the last treatment (n=4).
FIG. 18: Bay-117082 induces apoptosis in KP lung tumors. (18A), H&E and cleaved caspase 3 (CC3) immunohistochemistry staining (200×) in vehicle control and Bay-117082 treated KP lung tumors (10 mg/kg, 48 hrs). (18B) Quantification of CC3 positive cells. Error bars are s.d. (p<0.05).
Mice were sacrificed by carbon dioxide asphyxiation. Lungs were inflated with 4% formalin (neutral buffered formalin), fixed overnight, and transferred to 70% ethanol. Lung lobes were embedded in paraffin and sectioned at 4 μm and stained with H&E for tumor pathologic study. For staining with anti-CC3 antibodies (#9661; Cell Signaling), lung tumor sections were dewaxed, rehydrated, and subjected to high-temperature antigen retrieval—10 minutes of boiling in a pressure cooker in 0.01 M citrate buffer, pH 6.0. […] The number of positive cells per tumor area was quantified using Bioquant software from >10 tumors in ≧3 mice per group (2).

[3] = test system: CDK inhibitors p21 and p27; settings: cited from earlier work
[4] = test system: LKR13 cells and 3TZ fibroblasts; assay: Trypan blue quantification of cell death, control cells; type: cell-based, mouse; settings: 24 hours
K lung tumors = assay: CC3 immunohistochemistry in K lung tumors; type: in vivo, mouse; settings: KrasLSL-G12D/wt mice, all time points assayed
Procedure: as §2
Mice were sacrificed by carbon dioxide asphyxiation. Lungs were inflated with 4% formalin (neutral buffered formalin), fixed overnight, and transferred to 70% ethanol. Lung lobes were embedded in paraffin and sectioned at 4 μm and stained with H&E for tumor pathologic study. For staining with anti-CC3 antibodies (#9661; Cell Signaling), lung tumor sections were dewaxed, rehydrated, and subjected to high-temperature antigen retrieval—10 minutes of boiling in a pressure cooker in 0.01 M citrate buffer, pH 6.0. Slides were stained overnight at 4° in 1:100 primary antibody. A goat anti-rabbit horseradish peroxidase-conjugated secondary antibody (Vector Laboratories) was used at 1:200 dilution, incubated for 1 hour at room temperature, followed by diaminobenzidine staining (Vector Laboratories). The number of positive cells per tumor area was quantified using Bioquant software from >10 tumors in ≧3 mice per group (2).

[5] = test system: NF-κB target genes regulating apoptosis and survival; assay: QPCR of NF-κB targets in Bortezomib-resistant KP cell line; type: cell-based, mouse; settings: 5 nM Bortezomib, 24 hours
Procedure: A representative resistant cell line was treated with control or 5 nM Bortezomib for 24 hours. Gene expression level was measured by QPCR and normalized to control-treated cells (set to 1). Error bars are s.d. (n=3).
as §1

[6] = 5 nM bortezomib, time course, KP cells

CC(C)C[C@H](NC(=O)[C@H](Cc1ccccc1)NC(=O)c1cnccn1)B(O)O [bortezomib, N-(2-pyrazine) carbonyl-L-phenylalanine-L-leucine boronic acid]
side effects in the clinic [1]: manageable side effects | expression of NF-κB target genes MYC, BCL2, XIAP [2]: downregulated | survival (KP mice): 104.2 ± 19.8 days | I16 mRNA level (NF-κB target genes; 5 nM bortezomib, KP cells): increased | expression of inflammation NF-κB targets I16, Tnf, Mmp3 (NF-κB target genes; [6]): not reduced | expression of proliferation related NF-κB target genes c-Myc and Cyclin D1 (NF-κB target genes; [6]): reduced expression | expression of NF-κB-regulated antiapoptosis genes Bcl2, Bclx1, Birc2 (cIAP1), Birc5 (Survivin) (NF-κB target genes; 5 nM bortezomib, time course, KP cells, real-time PCR): consistently downregulated | Bcl2 and Myc inhibition, bortezomib compared with Bay-117082 (NF-κB target genes; KP cells in vitro, FIG. 1B and FIG. 7A): more robust | CC3 staining after a final dose in pretreated tumors (KP lung tumors; KP mice, 3 previous doses of bortezomib, sacrificed 48 hours after final dose): no longer demonstrated significant CC3 staining | number of apoptotic (CC3) cells (KP lung tumors; KP tumors, 48 hours after a single dose): increase in the number of apoptotic cells | time course of CC3+ cell number (KP lung tumors; KP tumors, single dose, time-course): peaked at 24 and 48 hours post treatment and diminished at 96 hours | effect on CDK inhibitors p21 and p27 [3]: stabilize | cell death by Trypan blue counting [4]: did not show substantial cell death | apoptotic cells in K-only tumors (K lung tumors): did not detect a substantial number of apoptotic cells | NF-κB target genes regulating apoptosis and survival [5]: robust downregulation
